Measurements as given in publication PMC12592502, “Unraveling the mechanisms behind the enhanced efficacy of β-lactam-based sideromycins” (Communications Biology, 2025).
Converted amounts (≈) assume the structure as drawn. Read-outs that look alike come from different tables or passages of the source.

Key:
[1] = molecular target: AmpC (PDC-5) (Pseudomonas aeruginosa, UniProt P24735, R79Q/T105A); assay: biochemical; format: biochemical, P. aeruginosa ATCC 27853
Procedure: The purification of AmpC from the culture supernatant obtained above was conducted as described in the Catwright and Waley protocol[52] using an Affi-gel 10 matrix (Bio-Rad, Hercules, CA, USA) loaded in a column (G-Bioscience, St-Louis, MO, USA). First, the resin was washed with cold deionized water. The resin was then collected and mixed with 20 mL of the 3-aminophenylboronic acid solution (1 M KHCO3 containing 2 g of 3-aminophenyl boronic acid and 2 g of sorbitol) at 4 °C for 1 h, and the pH was maintained at 8 with solid KHCO3. The mixture was loaded onto the column and washed with 10 column volumes of 1 M NaCl/0.5 M sorbitol (pH 7), followed by 10 column volumes of 0.5 M borate (pH 7), and then 10 column volumes of the loading buffer (20 mM triethanolamine HCl/0.5 M NaCl, pH 7). The sample was dialyzed in the loading buffer before being loaded onto the column. The column was washed with the loading buffer until no absorbance was measured at OD280. AmpC was eluted in fractions of 1 mL with 0.5 M borate/0.5 M NaCl pH 7. […] The purity was visualized on a 10% bis-acrylamide gel. Only pure fractions showing a single band at 40 kDa were pooled together and then dialyzed at 4 °C in a KP buffer 0.05 M pH 7 (see Fig. S2). The protein concentration was determined with a Bradford protein reagent (Bio-Rad).
Enzyme concentrations were 20 nM for AmpC and SHV-1, and 50 nM for OXA-98. Quartz cuvette (FireflySci Inc., Northport, NY) with 1 cm length path and 2 mm inside width was used with an Ultrospec 2100 Pro (Biochrom, Harvard Bioscience Inc., USA) to acquire the kinetic measures. […] The following extinction coefficients (Δε) and wavelengths (λ) were used:
The steady-state parameters (Km and Kcat) were determined by plotting the initial velocity against substrate concentrations (Michaelis–Menten curve). The Kcat was measured using the Vmax (μM/sec) divided by the total enzyme concentration and the catalytic efficiency was further calculated (Kcat/Km). SHV-1 parameters were determined with three Michaelis–Menten curves of at least seven substrate concentrations, while OXA-98 and AmpC were duplicates of curves of at least seven substrate concentrations. […] Initial velocities were measured at room temperature (25 °C). The Vmax and Km were calculated using least squares fit regression in GraphPad version 10.2.2. Ki was measured using a derivative of IC50 with an adaptation of the Cheng–Prusoff equation[55]. […] The corrected Ki was calculated using this formula: Kicorrected=Ki(observed)/1+S/KmNCF

[2] = test system: E. coli MC4100; assay: MIC; format: cell-based, Escherichia coli; conditions: for MIC in combination with PAβN: + 25 µg/mL PAβN
Procedure: All bacterial strains (see description and sources Table S1) were stored at −80 °C, and grown on tryptone soya agar (TSA) at 35 °C. The iron-deprived (ID)-MHBCA (cation-adjusted Muller-Hinton Broth, Becton Dickinson, Mississauga, ON, Canada) medium was prepared as reported by refs. [21],[50]. Briefly, MHBCA was treated with 10% Chelex® 50-100 mesh (Sigma) and stirred for 6 h at room temperature. The resin was removed by filtration. Divalent Ca^2+ (CaCl2), Mg^2+ (MgCl2), and Zn^2+(ZnSO4), were then added in the iron-depleted medium at 22, 12, and 1 μg/ml respectively. Finally, the pH was adjusted to 7.3, and the medium was sterilized with a 0.2-μm filter. Regular MHBCA (i.e., not treated with Chelex®) was used to compare the inhibitory activity of conjugates in iron-sufficient conditions.
Minimal inhibitory concentrations (MICs) were performed using a broth microdilution technique according to the Clinical and Laboratory Standards Institute (CLSI) guidelines. MICs were determined in MHBCA and in ID-MHBCA. To check the impact of β-lactamases, MICs in the presence of a β-lactamase inhibitor were also determined. The inhibitor was homogenized at 2X the final concentration and added to the bacterial inoculum just before distributing cells into the wells containing the drug dilutions. The final concentration of each inhibitor was 4 μg/mL for clavulanic acid (tested against K. pneumoniae) and 200 μg/mL for 3-aminophenylboronic acid (tested against P. aeruginosa and A. baumannii).

[3] = Antibiotic stability in medium without bacteria
Text: This method used ultra-performance liquid chromatography-mass spectrometry (UPLC-MS) to measure the amount of test antibiotics remaining in bacterial culture supernatants over time as a means to measure antibiotic uptake by bacterial cells. The method assumes that all antibiotic molecules in the medium (i.e., those that we measured by UPLC-MS) are not bound to the PBP targets in the periplasm, whereas it is assumed that the bactericidal effect (ΔCFU/mL) is correlated to antibiotic uptake and binding to PBPs. The test strain E. coli MC4100 was cultivated overnight in 10 mL of MHBCA or ID-MHBCA at 37 °C with shaking (200 rpm). The next day, the overnight culture was diluted in fresh preheated medium to obtain an OD600 of ~0.7 in MHBCA or ID-MHBCA. The culture was further diluted 1:2 in MHBCA or ID-MHBCA (growth controls), or in MHBCA or ID-MHBCA containing the freshly prepared test antibiotic (2 × the final concentration) to obtain an initial OD600 of ~0.35 (corresponding to 8.5 log10 CFU/mL) and 200 μM of antibiotic (final concentration). Antibiotics were also added to preheated MHBCA or ID-MHBCA without bacteria to control for the stability of the molecules in the medium over time. The moment bacteria were put in contact with the test antibiotic corresponded to the first time point (0 h). For each time point thereafter, 200 μL of sample from both assay and stability test tubes were retrieved and centrifuged at 4 °C for 5 min at 8000 × g. All supernatants were filtered (0.2 μm) and flash frozen in liquid nitrogen for transport. After melting, 2 μL of the samples were injected in the UPLC-MS before the analysis. In parallel, 20 μL of assay and growth control tubes were serially diluted in 96-well plates. Ten μL of each dilution was spotted on TSA plates and incubated for 24 h at 37 °C for CFU counting.
For analysis, the determined concentration in the supernatant was adjusted for the degradation of the molecules measured in the stability control tests for each time point. The final net antibiotic concentration in the medium was calculated at each time point by adding the concentration caused by degradation to the concentration of the test antibiotic measured in the assay tubes containing bacteria. […] A second control was added for the β-lactam LOR and CEF to verify the impact of metabolic waste on the stability of the molecules. The supernatant from the 4-h growth control without antibiotic was collected by filtration 0.2 µm. LOR and CEF were then added to the filtrated supernatant at 200 µM, and degradation was measured after 3 h.

[4] = Escherichia coli, MC4100, MC4100, ID-MHBCA (−), read-out: MIC
[5] = Escherichia coli, MC4100, MC4100, MHBCA (+), without PAβN, read-out: MIC
[6] = Escherichia coli, MC4100, MHBCA (+), without PAβN, read-out: MIC
[7] = MC4100, efflux pump mutant table S5, read-out: MIC

AmpC (PDC-5), sequence (P24735 27-397 R79Q/T105A): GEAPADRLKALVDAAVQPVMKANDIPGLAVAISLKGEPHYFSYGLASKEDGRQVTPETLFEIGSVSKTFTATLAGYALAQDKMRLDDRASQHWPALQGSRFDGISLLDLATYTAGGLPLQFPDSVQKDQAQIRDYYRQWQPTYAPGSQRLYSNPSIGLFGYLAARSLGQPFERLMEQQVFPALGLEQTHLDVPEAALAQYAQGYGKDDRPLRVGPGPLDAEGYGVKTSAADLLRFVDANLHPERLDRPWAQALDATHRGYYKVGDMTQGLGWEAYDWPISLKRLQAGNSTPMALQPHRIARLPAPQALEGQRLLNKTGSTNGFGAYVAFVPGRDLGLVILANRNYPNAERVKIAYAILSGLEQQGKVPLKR

Row | Structure (SMILES) | Ki [1] [µM] | MIC [2, 4] [µM] | MIC ratio unconjugated β-lactam/conjugate ([2]; MC4100, ID-MHBCA) | MIC ratio unconjugated β-lactam/conjugate ([2]; MC4100, MHBCA) | MIC in combination with PAβN ([2]; MC4100, MHBCA) [µM] | AmpC (PDC-5) Vmax ([1]; n = 2) [µmol·mg/min] | percentage of antibiotic degradation ([3]; 2 h, ID-MHBCA) | percentage of antibiotic degradation ([3]; 2 h, MHBCA) [%] | percentage of antibiotic degradation ([3]; 4 h, ID-MHBCA) [%] | percentage of antibiotic degradation ([3]; 4 h, MHBCA) [%] | percentage of antibiotic degradation ([3]; 6 h, ID-MHBCA) [%] | percentage of antibiotic degradation ([3]; 6 h, MHBCA) [%] | percentage of antibiotic degradation ([3]; 8 h, ID-MHBCA) [%] | percentage of antibiotic degradation ([3]; 8 h, MHBCA) [%] | percentage of antibiotic degradation ([3]; 10 h, ID-MHBCA) [%] | percentage of antibiotic degradation ([3]; 10 h, MHBCA) [%] | percentage of antibiotic degradation ([3]; 24 h, ID-MHBCA) [%] | percentage of antibiotic degradation ([3]; 24 h, MHBCA) [%] | MIC [2, 5] [µM] | MIC [2, 7] [µM] | also measured
1 | CC1(C)S[C@@H]2[C@H](NC(=O)[C@H](N)c3ccccc3)C(=O)N2[C@H]1C(=O)O [AMP, ampicillin, reference compound] | 15 ± 1 | – | – | – | – | – | – | – | – | – | – | – | – | – | – | – | – | – | – | – | –
2 | CC1(C)SC2C(NC(=O)C(NC(=O)CN(CCCCNC(=O)c3cccc(O)c3O)C(=O)c3cccc(O)c3O)c3ccccc3)C(=O)N2C1C(=O)O (centres unmarked) [BAMP, bis-catechol (azotochelin)-ampicillin] | 19 ± 1 | 0.024 (≈ 0.018 µg/mL) | 512 | 256 | 0.2 | – | – | – | – | – | – | – | – | – | – | – | – | – | – | – | MIC ([2]; Escherichia coli, MC4100): 0.05 µM (≈ 0.0375 µg/mL)
3 | O=C(CN(CCCCNC(=O)c1cccc(O)c1O)C(=O)c1cccc(O)c1O)NC(C(=O)NC1C(=O)N2C(C(=O)O)=C(Cl)CCC12)c1ccccc1 (centres unmarked) [BLOR, bis-catechol (azotochelin)-loracarbef] | – | 0.006 (≈ 0.0045 µg/mL) | 512 | 256 | 0.2 | 11 ± 1 | NDD | 6 | 3 | 15 | 6 | 15 | 14 | 26 | 9 | 22 | 14 | 28 | 0.012 (≈ 0.009 µg/mL) | 0.024 (≈ 0.018 µg/mL) | MIC [2, 6]: 0.024 µM (≈ 0.018 µg/mL)
4 | N[C@@H](C(=O)N[C@@H]1C(=O)N2C(C(=O)O)=C(Cl)CS[C@H]12)c1ccccc1 [CEF, cefaclor, reference compound] | – | 3.1 (≈ 1.14 µg/mL) | – | – | 13 | – | – | – | – | – | – | – | – | – | – | – | – | – | 6.3 (≈ 2.32 µg/mL) | – | percentage of antibiotic degradation ([3]; 2 h, 200 μM): 14%
5 | N[C@@H](C(=O)N[C@@H]1C(=O)N2C(C(=O)O)=C(Cl)CC[C@H]12)c1ccccc1 [LOR, loracarbef, reference compound] | – | – | – | – | 6.3 | 15 ± 0.3 | – | – | – | – | – | – | – | – | – | – | – | – | – | 3.1 (≈ 1.08 µg/mL) | Km ([1]; Michaelis–Menten curves, n = 2, read-out: AmpC (PDC-5) Km): 22 ± 0.5 µM; percentage of antibiotic degradation [3]: NDD; MIC ([2]; MC4100, ID-MHBCA (−), read-out: MIC): 3.1 µM (≈ 1.08 µg/mL); MIC ([2]; MC4100, MHBCA (+), without PAβN, read-out: MIC): 3.1 µM (≈ 1.08 µg/mL)
6 | O=C(CCC(=O)N(CCCCNC(=O)c1cccc(O)c1O)CCCNC(=O)c1cccc(O)c1O)NCCCCCN(O)C(=O)CCCC(=O)NC(C(=O)NC1C(=O)N2C(C(=O)O)=C(Cl)CSC12)c1ccccc1 (centres unmarked) [MCEF, mixed ligand bis-catechol-mono-hydroxamate-cefaclor] | – | > 200 | < 0.016 | – | > 200 | – | 5% | 12 | 18 | 25 | 22 | 29 | 31 | 41 | 29 | 38 | 43 | 54 | 6.3 to 25 (≈ 6.81 to 27 µg/mL) | 6.3 (≈ 6.81 µg/mL) | MIC [2, 6]: 6.3 µM (≈ 6.81 µg/mL)
